Laboratory results: patent US9657081B2, “Inhibiting peptides derived from triggering receptor expressed on myeloid cells-1 (TREM-1) TREM-like transcript 1 (TLT-1) for treatment of cardiovascular diseases” (INSERM (Institut National de la Sante et de la Recherche …, priority 2013, dated 2017)

Assays:
[1] = tested on: TREM-1; assay: Rat model of myocardial ischemia-reperfusion, physiologic parameters and micro-TEP imaging; format: in vivo
Description: Adult male Wistar rats (360-380 g) were used. All rats were anaesthetized with ketamine (100 mg/kg, intramuscularly) and mechanically ventilated. After a left thoracotomy, the left coronary artery was identified and ligated with a 6-0 prolene surgical suture. LAD occlusion was confirmed by a change in myocardial color from red to white in the ischemia area (Left ventricle). The chest was closed and the skin was sutured with 6-0 silk. The animals returned to their cage where they were supervised until their complete recovery. The postoperative mortality rate of all rats was 20%.
After surgical LAD occlusion, importance of ischemic area was evaluated by micro-TEP imaging. Animals were then randomized to receive peptide (5 mg/kg) every 24 h for 5 days or placebo (vehicle).
A further evaluation was performed at 6 weeks by micro-TEP imaging and conductance catheter (Millar) in order to study the treatment effect on myocardial remodeling and myocardial function.
Animals received same surgery than in permanent ischemia, but with reperfusion of ischemic area by release of the LAD ligation after 60 minutes of ischemia. The same protocol as described above was then applied.
In all animals, approximately 70 MBq of ^18F-FDG (in a 0.3-0.5 ml volume) was injected intravenously and under a short anaesthesia (1.5-2.5% of isoflurane inhalation) 60 min prior to initiating PET recording. Recording was acquired in list mode under continuous anaesthesia by isoflurane, using a dedicated small animal PET system (Inveon, Siemens, Knoxville, Tenn., USA). The animals were positioned in the prone position and placed on a heating pad to maintain a body temperature within the normal range. The animals were connected to a standard ECG monitor by three electrodes placed on the inner surfaces of limb extremities. Recording times were 20 min for 18F emission and 6 min for 57Co transmission. The coincidence timing window was set to 3.4 ns and the energy window between 350 and 650 keV. Images were reconstructed in 16 cardiac intervals, providing a temporal resolution of 11-15 ms for common heart rate values. Under these conditions, the axial spatial resolution was less than 1.5 mm. In addition, on LV rat phantoms obtained by a stereolithography process, a precise determination of the actual cavity volumes was provided by FDG PET images above the level of 100 μl corresponding to the lower limit for the LV endsystolic volume in adult.
To investigate the role of TREM-1- and TLT-1-derived peptides in a more relevant model of MI, we performed a transient coronary artery ligation (ischemia-reperfusion model: IR) in rats. After randomisation, animals were then imaged under anaesthesia (micro-TEP) and administered with TREM-1- and TLT-1-derived peptides (3 mg/kg daily for 5 days i.p.) or LR12-scrambled peptide. Imaging was then repeated at 6 weeks before we studied cardiac function by using a conductance catheter (Millar).

[2] = target: T1, TREM-1 (Mus musculus, UniProt Q9JKE2); assay: Mouse model of myocardial infarction, survival; format: in vivo; conditions: 100 μg daily for 5 days i.p., beginning 60 min after ligation; Log-Rank p<0.01
T1 construct: endogenous in cells; host or cells: living mice (C57BL, Balb/c, ApoE-/-), in vivo
T1 sequence (Q9JKE2 21-230): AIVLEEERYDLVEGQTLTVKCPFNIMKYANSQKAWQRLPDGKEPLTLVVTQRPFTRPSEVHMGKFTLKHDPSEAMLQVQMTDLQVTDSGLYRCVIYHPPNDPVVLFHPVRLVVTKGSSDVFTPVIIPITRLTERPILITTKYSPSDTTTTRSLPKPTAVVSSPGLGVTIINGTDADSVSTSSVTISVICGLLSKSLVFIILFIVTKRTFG
Description: Adult male Balb/c mice (20-23 g) were subjected to myocardial ischemia and were randomly grouped (n=10-15 per group) to receive repeated TREM-1- and TLT-1-derived peptides (100 μg in 0.2 mL NaCl 0.9% once a day for 5 days), scrambled-LR12 (100 μg in 0.2 mL NaCl 0.9% once a day for 5 days), or 10 μg anti-TREM-1 mAb in 0.2 mL NaCl 0.9% i.p. injections. Survival was monitored over 1 wk and analyzed by Log Rank test. (There were no deaths after the 5th day). Data are representative of at least 15 different experiments.
All procedures were performed on mice male C57BL/C ranging in age from 6-8 weeks. Mice were anesthetized by an intraperitoneal injection of xylazine (60 mg/kg) and fixed in supine position. The trachea was intubated and ventilated (the tidal volume was 200 μl/25 g and the respiratory rate was 120 breaths/min). After a left thoracotomy, the left coronary artery was identified and ligated with an 8-0 prolene surgical suture at 1.0 mm distal from tip of the left auricle. LAD occlusion was confirmed by a change in myocardial color from red to white in the ischemia area (Left ventricle). The chest was closed and the skin was sutured with 6-0 silk. […]
Mice were monitored after surgery for mortality. Mice were randomized to receive or not peptides (daily ip injection for 5 days, 5 mg/kg) and monitored for survival. […]

Work on “LQEEDAGEYGCM (listed as Homo sapiens) [TLT1-LR12]” yielded a Body weight ([1]; Baseline) of 391 ± 9 g, an EDV ([1]; Baseline) of 511 ± 55 µL and an EF ([1]; Baseline) of 47 ± 6%. For the same sequence, the ESV ([1]; Baseline) was 251 ± 75 µL, the Heart rate ([1]; Baseline) was 343 ± 43 bpm and the “MI Areas” value ([1]; Baseline) was 41 ± 20 % of LV. The Systolic blood pressure ([1]; Baseline) was 134 ± 2 mmHg, the Body weight ([1]; Six weeks) was 439 ± 12 g and the “Body weight, difference with baseline” value ([1]; Six weeks) was 48 ± 10 g. The EDV ([1]; Six weeks) was 620 ± 34 µL, the “EDV, difference with baseline” value ([1]; Six weeks) was 109 ± 55 µL and the EF ([1]; Six weeks) was 56 ± 5%. For the same sequence, the “EF, difference with baseline” value ([1]; Six weeks) was 9 ± 7%, the ESV ([1]; Six weeks) was 273 ± 47 µL and the “ESV, difference with baseline” value ([1]; Six weeks) was 22 ± 18 µL. For the same sequence, the Heart rate ([1]; Six weeks) was 370 ± 25 bpm, the “Heart rate, difference with baseline” value ([1]; Six weeks) was 27 ± 22 bpm and the “MI Areas” value ([1]; Six weeks) was 3 ± 9 % of LV. The “MI Areas, difference with baseline” value ([1]; Six weeks) was −38 ± 8 % of LV, the Systolic blood pressure ([1]; Six weeks) was 167 ± 6 mmHg and the “Systolic blood pressure, difference with baseline” value ([1]; Six weeks) was 33 ± 6 mmHg. The “survival after permanent coronary artery ligation” value [2] was “All but 1 LR12-treated animals survived”.
